Reference: patent US11246949B2, “Imaging contrast agents and uses thereof” (The Research Foundation for The State University of New York, priority 2011, dated 2022)

Key:
[1] = Ascorbate consumption (redox cycling, reactive oxygen species generation); details: 100 μM ascorbate, 10 μM Fe(II), 10 μM ligand, 10 mM HEPES, pH 7.4, 37° C.
[2] = Electrochemical potential E° vs. NHE; type: physicochemical; details: 100 mM tetrabutylammonium hexafluorophosphate in acetonitrile
Description: In an embodiment, the compounds of the invention are stable towards chemical reaction in an oxidative environment (i.e., in the presence of biologically relevant concentrations of peroxide or oxygen). In an embodiment, the stability in an oxidative environment can be related to the reduction potential of the complex. In an embodiment, the compounds of the present invention have a reduction potential greater than 600 mV vs. NHE (Normal Hydrogen Electrode) as shown in Table 1. Generally, the compounds of the invention have a reduction potential above 800 mV vs. NHE.

[3] = Persistence of high spin Fe(II) oxidation state in aqueous solution (1H NMR, μeff); type: physicochemical; details: atmospheric oxygen, several days
Protocol: Effective magnetic moments are characteristic of high spin Fe(II) at 5.1 BM and 5.8 BM for Fe(L1) and Fe(L2), These were measured in 100 mM NaCl in D2O, pH 7.4, and D2O at pH 7.0, respectively. The ^1H NMR spectra of the two complexes show highly shifted proton resonances (FIGS. 4-5). There are nine non-exchangeable proton resonances for Fe(L2) consistent with trigonal prismatic geometry as observed previously for Fe(L3) and three sets of four chemically inequivalent proton resonances in the macrocycle backbone. […] The exchangeable amide and amine protons were identified by comparison of the ^1H NMR spectra of the complexes in H2O and […]. For Fe(L1), the amide protons are highly shifted downfield, appearing at 77 ppm. The amine protons of Fe(L2) are only slightly shifted and are observed at 11 ppm.
Generally, macrocyclic complexes in FIG. 1 are prepared from the macrocycle and Fe(II) salt such as FeCl2, or Fe(CF3SO3)2 in acetonitrile at room temperature with argon bubbled through the solvent. This helps to ensure that a negligible amount of O2 is present in the reaction flask. In the absence of an inert atmosphere, difficulties in maintaining the desired oxidation state may arise through mechanisms such as oxidation of the metal to Fe(III) prior to complexation with the ligand. […]

[4] = Dissociation of the metal ion complex (kinetic inertness); type: physicochemical
[5] = pH-potentiometric titrations: acid-dissociation and ligand-Fe(II) equilibrium constants; type: physicochemical; details: for formation constant log K (binding of macrocycle to metal ion): 100 mM NaCl
Protocol: FIG. 10. Representative pH-potentiometric titrations for Fe(L1) and Fe(L3) in 100 mM NaCl at 25° C.
Fe(II) paraCEST agents were developed by preparing ligands that stabilize Fe(II) and Ni(II), contain multiple exchangeable protons to enhance the CEST effect and form six or eight coordinate complexes to protect the Fe(II) from binding additional ligands that might complicate the CEST signal. The sexadentate ligands contained the macrocycle, 1,4,7-triazacyclononane, with three pendent groups while the octadentate ligands contained 1,4,7,10-tetraazacyclododecane and four pendent groups (FIG. 1 and FIG. 2). Pyridine pendent groups stabilize Fe(II) relative to Fe(III) (L2, L3), and amide pendent groups are stabilizing of Fe(II) (L1). For example, the pyridine groups in Fe(L3) lead to a high reduction potential of +930 mV vs. NHE. Amide groups contain exchangeable protons and have been commonly used as a basis for Ln(III) paraCEST agents. In contrast, amino pyridine pendent groups and the benzimidazole groups have exchangeable protons that are one bond further away from the Fe-coordinated nitrogen of the pyridine ring. Exchangeable protons close to the Fe(II) center as well as more remotely located protons appended to a ligand pi-system have been studied in this work in order to capitalize on both the dipolar and contact shift contributions of paramagnetic Fe(II). The strategy of using exchangeable protons that are remote from the metal ion center was explored in order to capitalize on both the dipolar and contact shift contributions of paramagnetic Fe(II). Fe(II) complexes were prepared in acetonitrile or in aqueous solution by simple addition of the free base form of the ligands to Fe(CF3SO3)2.

Row | Structure (SMILES) | Ascorbate consumption [1] | E° vs. NHE [2] | resistance to dissociation >12 h, neutral pH [4] | formation constant log K (binding of macrocycle to metal ion) [5] | further results
1 | O=C([O-])CN(CCN(CC(=O)[O-])CC(=O)[O-])CC(=O)[O-].[Fe+3] [Fe(EDTA), reference compound] | 77 ± 13 ×10^−5 (s^−1) | 390 mV |  |  | 
2 | NC(=O)CN1CCN(CC(N)=O)CCN(CC(N)=O)CC1.[Fe+2] [Fe(L1)] | 7.2 ± 0.96 ×10^−5 (s^−1) | 860 ± 9 mV | Moderate | 13.5 | resistance to oxidation to Fe(III) [3]: resistant to oxidation to Fe(III); % dissociation over 12 hours ([4]; 12 hours): <9%; Log K1 ([5]; K1 = [LH+]/([L][H+]), 1.05 mM L, 1.0 mM Fe(OTf)2, 0.10 M NaCl, 25° C.): 10.19 ± 0.11; Log K2 ([5]; K2 = [LH2 2+]/([LH+][H+]), 0.10 M NaCl, 25° C.): <2; Log K3 ([5]; K3 = [LH3 3+]/([LH2 2+][H+]), 0.10 M NaCl, 25° C.): <2; Log K Fe-L ([5]; KFeL = [FeL2+]/([Fe2+][L]), 0.10 M NaCl, 25° C.): 13.47 ± 0.25; Log K FeL-OH ([5]; KFeL-OH = [FeL-OH+]/([FeL2+][OH−]), 0.10 M NaCl, 25° C.): 9.43 ± 0.18; Log K Fe-LH ([5]; KFeLH = [FeLH3+]/([FeL2+][H+]), 0.10 M NaCl, 25° C.): 5.54 ± 0.14
3 | Cc1nc(CN2CCN(Cc3ccc(N)c(C)n3)CCN(Cc3ccc(N)c(C)n3)CC2)ccc1N.[Fe+2] [Fe(L2)] |  |  | good |  | resistance to oxidation to Fe(III) [3]: resistant to oxidation to Fe(III)
4 | NC(=O)CN1CCN(CC(N)=O)CCN(CC(N)=O)CCN(CC(N)=O)CC1.[Fe+2] [Fe(L4)] | 4.0 ± 1.0 ×10^−5 (s^−1) | 800 ± 5 mV | excellent | 7.5 | % dissociation over 12 hours ([4]; 12 hours): 0%; dissociation after incubation ([4]; 12 hours, 37° C., pH 4 or neutral pH with five equivalents of CuCl2 or ZnCl2): no dissociation
5 | [Fe+2].c1ccc2[nH]c(CN3CCN(Cc4nc5ccccc5[nH]4)CCN(Cc4nc5ccccc5[nH]4)CC3)nc2c1 [Fe(L5)] |  |  | moderate |  | 
6 | CC(O)CN1CCN(CC(C)O)CCN(CC(C)O)CCN(CC(C)O)CC1.[Fe+2] (centres unmarked) [Fe(L6)] |  |  | Moderate | 9.3 | 
7 | CC(O)CN1CCNCCN(CC(C)O)CCNCC1.[Fe+2] (centres unmarked) [Fe(L7)] |  |  | moderate |  | 
8 | Nc1cccc(CN2CCN(Cc3cccc(N)n3)CCN(Cc3cccc(N)n3)CC2)n1.[Fe+2] [Fe(L8)] |  |  | good |  | 
9 | NC(=O)CN1CCN(CC(N)=O)CCN(CC(N)=O)CC1.[Ni+2] [Ni(L1)] |  |  | good |  | inertness towards dissociation in solution ([4]; neutral and acidic pH, at least 24 hours): inert towards dissociation
